# From US8629242B2, “Methods of inhibiting calcineurin with ApoE analogs” (Cognosci, Inc., priority 2007, dated 2014)
# Where two headings read alike, the source gives them in different places. Where a SMILES comes first, the peptide text is derived from it. [ ]: non-standard residue; d: D form. Aib = CC(C)(N)C(=O)O
# Experiments:
# [1] = system: peritoneal macrophages isolated from EAE mice; assay: In vitro effect on LPS+IFN-γ-induced inflammatory mediators in macrophages from saline-treated EAE mice; type: cell-based; conditions: for inhibition of NO release: 72 hours after LPS+IFN-γ; for NOS2 expression (real-time PCR): normalized to 18S rRNA, fold change vs control
# Experimental: FIG. 5. In vitro effects of COG compounds on LPS and IFN-γ-induced production of inflammatory mediators in cultured peritoneal macrophages isolated from EAE mice. Conditioned medium with or without COG 133 or COG 112 was collected 45 hours after immunogen exposure for analysis of TNF-α (A) and IL-6 (B), or 72 hours after inflammatory stimulation for measurement of nitrite (C). Level of NOS2 expression was assessed by quantitative real-time PCR (D). NOS2 expression was first normalized by the endogenous control (18S rRNA) and then expressed as fold change compared to control group. Statistical analysis was performed by ANOVA and significance was shown as *(p<0.05) and **(p<0.001).
# We then examined the ability of COG 112 (SEQ ID NO: 5) and COG 133 (SEQ ID NO: 1) to inhibit the in vitro release of NO, TNF-α and IL-6 using macrophages obtained from saline-treated EAE mice on dpi 35. Conditioned medium with or without COG 133 or COG 112 was collected 45 hours after immunogen (LPS+IFN-γ) exposure for analysis of TNF-α and IL-6, or 72 hours after stimulation for measurement of nitrite. […] Levels of NOS2 expression were quantified by real-time PCR. NOS2 expression was first normalized by the endogenous control (18S rRNA) and then expressed as fold change compared to control group.
# [2] = system: PLP-induced relapsing-remitting experimental autoimmune encephalomyelitis (EAE) model; assay: PLP-induced relapsing-remitting EAE model; type: in vivo; set-up: CSmax during relapse (mean ± SEM) / Area under curve (mean ± SEM): scale not given here; conditions: 4 mg/kg s.c.; for Area under curve (mean ± SEM): clinical score vs days post-inoculation, out to 60 days; for CSmax during relapse (mean ± SEM): maximal clinical score during relapse; for Relapse Rate: number of animals experiencing a relapse
# Experimental: To further compare the activity of the various ApoE analogs, the efficacy of the analogs was assessed in a PLP-induced relapsing-remitting experimental autoimmune encephalomyelitis (EAE) model. […] The second dose was administered the next day followed by three times a week (M, W, F). Relapse rate represents the number of animals experiencing a relapse, while the CSmax indicates the maximal clinical score during relapse. Area under curve represents the area under the curve in a plot of clinical score vs. days post-inoculation (out to 60 days). […] The improvement in relapse rate and clinical score in the EAE model by ApoE analog treatment may be due, in part, to the remyelination-promoting effect of the ApoE analogs.
# Maximum tolerated dose = type: in vivo; conditions: for MTD: in vivo
# From the text: To fully evaluate the use of ApoE analogs as therapeutic compounds, the margin of safety should also be determined. Towards that end, we determined the maximum tolerated dose of COG 112, COG 248, and COG 345 when administered by intravenous and subcutaneous injection.
# [3] = system: animal model of human diseases; assay: Minimum effective dose in animal models; type: in vivo
# cerebellar slices = assay: Lysolecithin-induced demyelination in organotypic cerebellar slice culture; type: cell-based, rat
# Experimental: FIG. 7. COG 112 promotes remyelination in a lysolecithin-induced demyelination model in cerebellum slice culture. Cerebellum slices from postnatal day 10 rat pups were cultured for 7 days. Lysolecithin was added to a final concentration of 0.5 mg/ml and then removed after incubation overnight (15˜17 hr). 1 μM COG 112 was added to the slice and cultured for 5 days. The cerebellar slices were either immunohistologically stained with MBP; or collected and lysed for western blotting with myelin marker MBP. (A) naïve slice; (B) 2 days after lysolecithin treatment; (C) day 7 after lysolecithin treatment; (D) day 7 after lysolecithin treatment with COG 112 added on day 3; (E) Western blot of cerebellar lysates probed for MBP; (F) Densitometry analysis of blots probed for MBP. The density of each MBP band was normalized to density of β-actin band. One-way ANOVA was used for statistical analysis. n=4
# FIG. 8. COG 112 prevents lysolecithin-induced cell death of oligodendrocytes in cerebellum slice culture. Cerebellum slices from postnatal day 10 rat pups were cultured for 7 days. Lysolecithin was added to a final concentration of 0.5 mg/ml with and without COG 112 (1 μM). After incubation overnight (16 hr), medium was replaced with fresh lysolecithin-free medium, but still containing COG 112 for the COG 112 treatment group. After two days, the cerebellar slices were collected and lysed for western blotting with myelin marker MBP (left panel) and oligodendrocyte marker CNPase (right panel). The density of each MBP or CNPase band was normalized to the density of the β-actin band. One-way ANOVA was used for statistical analysis. n=4, * p<0.01.
# FIG. 19. COG 345 promotes remyelination in lysolecithin-induced demyelination model of cerebellum slices. Significant demyelination was induced by lysolecithin (0.5 mg/ml) in cerebellar slices. COG 112 or COG 345 (1 μM) was added on day 3 when full demyelination was achieved. 4 days later, the slices were fixed and double stained with myelin marker MBP (green) and Purkinje cell marker calbindin (red). (A) Untreated-slices; (B) lysolecithin-treated slices; (C) COG 112-treated slices after lysolecithin exposure; (D) COG 345-treated slices after lysolecithin exposure. E-F. ApoE analogs protect OPCs from LPS-induced cell death in OPC/microglia mixed culture. OPCs and microglia derived from brain culture of P2 rat pups were plated in 96-well plates in 1:1 ratio. LPS (10 ng/ml) together with 1 μM of the indicated ApoE analogs was added to the cultures. After 24 hours, OPC cell death was quantified by LDH assay (E) and MTT assay (F). Statistical analysis was conducted by one-way ANOVA followed by Dunnett comparison vs. LPS group. * P<0.01, ** P<0.001, n=3.
# The effect of COG peptides (i.e. ApoE analogs) on remyelination in a second model of demyelination was examined. For this series of experiments, a lysolecithin-induced in vitro demyelination model in an organotypic cerebellar slice culture was used. Parasagittal slices of postnatal Day 10 (P10) rat cerebellum were cut at 400 μm using a Tissue Slicer (SD Instruments, Grants Pass, Oreg.). After culture in conditioned medium for 7 days in vitro (DIV), fresh medium with lysolecithin (0.5 mg/ml) was added to the slice and incubated overnight (15-17 hours) at 37° C. The lysolecithin-containing medium was then replaced with fresh medium without lysolecithin. On day 3, COG 112 (1 μM) was added to the slice with fresh medium. After incubation for 5 days, the cerebellar slices were either immunohistologically stained for myelin basic protein (MBP), a myelin marker, (FIG. 7A-D) or lysed for western blotting and subsequent probing for MBP (FIGS. 7E and F). […] Similar results were obtained from the Western blot analysis of lysates of the cerebellar slices (FIGS. 7E and F). […] In addition, the blots of cerebellar slice lysate were also probed for oligodendrocyte (OL) marker 2′,3′-Cyclic Nucleotide 3′-Phosphodiesterase (CNPase). […]
# [4] = sc, subcutaneous injection, read-out: Maximum Tolerated Dose Subcutaneous
# [5] = intravenous injection, read-out: Maximum Tolerated Dose Intravenous
# [6] = 45 hours after LPS+IFN-γ, dose-dependent suppression
# [7] = 1 μM added on day 3 after lysolecithin, 5 days
# [8] = 1 μM added together with lysolecithin, 2 days after
Compound,inhibition of NO release ([1]; 5 μM),NOS2 expression (real-time PCR) [1],Area under curve (mean ± SEM) [2],CSmax during relapse (mean ± SEM) [2],Relapse Rate [2],MTD (Maximum tolerated dose; [4]),MTD (Maximum tolerated dose; [5]),other results
CC(=O)N[C@@H](CC(C)C)C(=O)N[C@@H](CCCNC(=N)N)C(=O)N[C@H](C(=O)N[C@@H](CCCNC(=N)N)C(=O)N[C@@H](CC(C)C)C(=O)N[C@@H](C)C(=O)N[C@@H](CO)C(=O)N[C@@H](Cc1c[nH]cn1)C(=O)N[C@@H](CC(C)C)C(=O)N[C@@H](CCCNC(=N)N)C(=O)N[C@@H](CCCCN)C(=O)N[C@@H](CC(C)C)C(=O)N[C@@H](CCCNC(=N)N)C(=O)N[C@@H](CCCCN)C(=O)N[C@@H](CCCNC(=N)N)C(=O)N[C@@H](CC(C)C)C(=O)N[C@@H](CC(C)C)C(N)=O)C(C)C [COG 133],about 37%,affect NOS2 expression,25.3 ± 8.3,3.2 ± 0.7,7/14,> 100 mg/kg,16 mg/kg,"suppression of IL-6 ([1]; 5 μM, 45 hours after LPS+IFN-γ): only moderate, yet statistically significant, suppression; suppression of TNF-α ([1]; 5 μM, 45 hours after LPS+IFN-γ): only moderate, yet statistically significant, suppression; Minimum Effective Dose (model) ([3]; models: CIA, EAE): 1 mg/kg (CIA, EAE)"
Ac-RQIKIWFQNRRMKWKKCLRVRLASHLRKLRKRLL-NH2 [COG 112],completely inhibited,more potent effect than COG 133,16.7 ± 3.6,2.4 ± 0.8,5/14,> 100 mg/kg,28 mg/kg,"concentration giving complete inhibition of IL-6 levels [1, 6]: about 5 μM; concentration giving complete inhibition of TNF-α levels [1, 6]: about 5 μM; MBP levels (Western blot) (cerebellar slices; [7]): increased MBP levels; level of MBP protein (immunostaining) (cerebellar slices; [7]): robustly elevated; prevention of lysolecithin-induced demyelination (MBP Western blot) (cerebellar slices; [8]): did not prevent lysolecithin-induced demyelination; prevention of oligodendrocyte cell death (CNPase Western blot) (cerebellar slices; [8]): did prevent oligodendrocyte cell death; level of CNPase (Western blot) (cerebellar slices; 1 μM post-treatment, data not shown): significantly increased; Minimum Effective Dose (model) ([3]; models: EAE, TBI): 1 mg/kg (EAE, TBI)"
"CC(=O)NC(=N)NCCC[C@H](NC(=O)[C@H](CCCCN)NC(=O)[C@H](CCCNC(=N)N)NC(=O)[C@H](CC(C)C)NC(=O)[C@H](CCCCN)NC(=O)[C@H](CCCNC(=N)N)NC(=O)[C@H](CC(C)C)NC(=O)C(C)(C)NC(=O)[C@H](CO)NC(=O)[C@H](C)NC(=O)[C@H](CC(C)C)NC(=O)[C@H](CCCNC(=N)N)NC(=O)[C@@H](NC(=O)[C@H](CCCNC(=N)N)NC(=O)[C@H](CC(C)C)NC(C)=O)C(C)C)C(=O)N[C@@H](CC(C)C)C(=O)N[C@@H](CC(C)C)C(N)=O [COG 345, acetyl-LRVRLAS-Aib-LRKLRK(acetyl-Arg)LL-amide] (Ac-LRVRLAS[Aib]LRKLRKR(Ac)LL-NH2)",–,–,15.5 ± 2.5,1.4 ± 0.2,4/15,> 150 mg/kg,20 to 25 mg/kg,"myelination (MBP/calbindin double staining) (cerebellar slices; 1 μM added three days after lysolecithin, 4 days): dramatically restored myelination; improvement in relapse rate and maximum clinical score during relapse [2]: significant improvement; safety profile by intravenous injection (Maximum tolerated dose; compared to the other analogs on a molar basis): superior safety profile; Minimum Effective Dose (model) ([3]; model: EAE): 1 mg/kg (EAE)"
